Values of other authors, collected in US20160222014A1, “COMPOUNDS FOR REGULATING FAK AND/OR SRC PATHWAYS” (ASANA BIOSCIENCES, LLC, priority 2013, published 2016).

Key:
[1] = system: 4T1 orthotopic breast carcinoma; settings: cited from earlier work
[2] = system: FAK autophosphorylation at Tyrosine397 and Akt phosphorylation at Serine473; settings: 4T1 breast carcinoma; cited from earlier work
[3] = system: panel of pancreatic cancer cell lines; settings: read-out: anti-proliferative IC50; cited from earlier work
[4] = system: MIA PaCa-2 human pancreatic tumor; settings: oral administration, cited from earlier work
[5] = system: prostate and pancreatic cancer xenograft; settings: prostate and pancreatic cancer xenograft models; cited from earlier work
cell migration = settings: concomitant with inhibition of focal adhesion turnover; cited from earlier work
[6] = system: cell proliferation and apoptosis; settings: cited from earlier work
[7] = system: tumor FAK Tyr-397 phosphorylation; settings: 100 mg/kg intraperitoneal, i.p.; cited from earlier work
[8] = 100 mg/kg intraperitoneal, i.p.; cited from earlier work
[9] = system: CSC population in 2 human breast cancer cell lines; settings: 2 human breast cancer cell lines in vitro and in xenografts; cited from earlier work

## CNC(=O)c1ccccc1Nc1nc(Nc2ccc(N3CCOCC3)cc2OC)ncc1Cl [NVP-TAE226]
[1]; oral administration, dose-dependent
  4T1 murine breast tumor growth and metastasis to the lung: inhibited
[2]
  Inhibition of FAK autophosphorylation at Tyrosine397 and Akt phosphorylation at Serine473: observed in a dose-dependent manner
[3]
  IC50: 760 nM
[4]; MIA PaCa-2 model
  body weight loss: no body weight loss
[4]
  MIA PaCa-2 human pancreatic tumor growth: efficiently inhibited

## CN(c1ncccc1CNc1nc(Nc2ccc3c(c2)CC(=O)N3)ncc1C(F)(F)F)S(C)(=O)=O [PF-562,271, N-methyl-N-(3-(((2-((2-oxoindolin-5-yl)amino)-5-(trifluoromethyl)pyrimidin-4-yl)amino)methyl)pyridin-2-yl)methanesulfonamide]
[5]
  antitumor efficacy: good antitumor efficacy and tumor regression
  toxicity: no observed toxicity

## CS(=O)(=O)c1cccc(CNc2nc(Nc3ccc4c(c3)CCC(=O)N4)ncc2C(F)(F)F)c1 [PF-573,228]
Cell migration
  chemotactic and haptotactic migration: inhibited
[6]
  effect on cell proliferation and apoptosis: minimal to no effect

## CNC(=O)c1ccccc1Nc1cc(Nc2ccc(N3CCOCC3)cc2OC)ncc1C(F)(F)F [PND-1186]
[7]
  duration of inhibition of tumor FAK Tyr-397 phosphorylation: 12 h
[8]
  pharmacokinetics (PK): promising
[1]; mouse, in vivo
  syngeneic murine 4T1 orthotopic breast carcinoma tumor growth and spontaneous metastasis to lungs: significantly inhibited

## CC(C)Cc1ccc([C@@H](C)C(=O)NS(C)(=O)=O)cc1 [Repertaxin]
[9]
  CSC population: selectively depleted
